Read-outs that look alike come from different tables or passages of the source.
What was measured:
Assay in all cases: microbe, parasite or virus in culture
Assay type in all cases: cell-based, Hepatitis C virus (HCV)
HCV replicon 1B = details: Replicon Assay B
Method: In an alternate assay (“Replicon Assay B”), 1000 cells were seeded per well in a 384-well collagen coated black plate from Greiner bio-one (Cat #781946) in 5% FBS. Inhibitors of this invention were added at 24 h post-seeding, and the plates were incubated for 3 days. Cells were subsequently lysed with Qiagen lysis buffer (Cat #1062731) to extract the RNA. HCV replicon RNA level was measured by real-time PCR using the RNA-to-CT kit from Applied Biosystem (Cat #4392656) and genotype-specific primers and probes. The amplicon was located within NS5B. […] (SEQ. ID NO. 2); the probe sequence was FAM-labeled […] (SEQ. ID NO. 3).
The real-time RT-PCR reactions were run on ABI PRISM 7900HT or Viia7 Sequence Detection System using the following program: 48° C. for 30 minutes, 95° C. for 10 minutes, 40 cycles of 95° C. for 15 sec, 60° C. for 1 minutes.
Data for replicons 1A, 1AY93H and 2B were obtained using Replicon Assay A and data for replicons 1AQ30D and 1B were obtained using Replicon Assay B.

HCV replicon 2B = details: Replicon Assay A
How it was run: (§1)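 HCV replicon RNA levels were quantified by TaqMan RT-PCR after 3-day compound exposure (0.5% DMSO, 5% FBS). Cyclophilin RNA, co-amplified in the same reaction, served as endogenous control; Ct values were converted to RNA amounts using linear regression standard curves.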

HCV replicon 1AY93H = details: Replicon Assay A
How it was run: as §1

HCV replicon 1A = details: Replicon Assay A
How it was run: as §1

[1] = read-out: 2B IC50, HCV replicon 2B
[2] = read-out: 1A Y93H IC50, HCV replicon 1A Y93H
[3] = read-out: 1A Y93H IC50, replicon 1AY93H
[4] = Hepatitis C virus, HCV replicon 1B

Question: Which results are given for `COC(=O)N[C@H](C(=O)N1C2CC2C[C@H]1c1ncc(-c2cc(F)c3c(c2)OC(c2ccc(C4CC4)s2)n2c-3cc3cc(-c4cnc([C@@H]5CCCN5C(=O)[C@@H](NC(=O)OC)C5C[C@@H](C)O[C@@H](C)C5)[nH]4)ccc32)[nH]1)C(C)C` (single isomer, unassigned) [Compound 558]?
Answer: IC50 (HCV replicon 1B; HCV replicon 1B): 0.0358 nM; IC50 (HCV replicon 2B; [1]): 1.22 nM; IC50 (HCV replicon 1AY93H; [2]): 0.362 nM; IC50 (HCV replicon 1A; HCV replicon 1A): 0.0535 nM

Question: How did the IC50 (HCV replicon 1B; replicon 1B) turn out when `COC(=O)NC(C(=O)N1CCC[C@H]1c1ncc(-c2ccc3c(c2)cc2n3C(c3ccc(C4CC4)s3)Oc3cc(-c4cnc([C@@H]5CCCN5C(=O)[C@@H](NC(=O)OC)C(C)C)[nH]4)cc(F)c3-2)[nH]1)C(C)(C)F` (single isomer, unassigned) [Compound 77] was run?
Answer: 0.0029 nM

Question: What about the IC50 (HCV replicon 2B; read-out: 2B IC50, replicon 2B) of the same molecule?
Answer: 0.41 nM

Question: What about the IC50 (HCV replicon 1AY93H; [3]) of the same molecule?
Answer: 0.24 nM

Question: What about the IC50 (HCV replicon 1A; replicon 1A) of the same molecule?
Answer: 0.0018 nM

Question: `COC(=O)N[C@H](C(=O)N1CCC[C@H]1c1ncc(-c2cc(F)c3c(c2)OC(c2cc4c(s2)CCC4)n2c-3cc3cc(-c4cnc([C@@H]5CCCN5C(=O)[C@@H](NC(=O)OC)C(C)C)[nH]4)ccc32)[nH]1)C(C)C` (single isomer, unassigned) [Compound 27] was tested. Which IC50 (HCV replicon 1B; Hepatitis C virus, replicon 1B) did it give?
Answer: 0.0014 nM

Question: What about the IC50 (HCV replicon 2B; Hepatitis C virus, read-out: 2B IC50 (nM), replicon 2B) of the same molecule?
Answer: 1.49 nM

Question: And the IC50 (HCV replicon 1AY93H; Hepatitis C virus, read-out: 1A Y93H IC50 (nM), replicon 1AY93H)?
Answer: 0.65 nM

Question: And the IC50 (HCV replicon 1A; Hepatitis C virus, replicon 1A)?
Answer: 0.0016 nM

Question: For `COC(=O)NC(C(=O)N1CCC[C@H]1c1ncc(-c2cc(F)c3c(c2)OC(c2ccc(C4CC4)s2)n2c-3cc3cc(-c4cnc([C@@H]5CCCN5C(=O)[C@@H](NC(=O)OC)C5CCOCC5)[nH]4)ccc32)[nH]1)C(C)(C)F` (some centres unmarked) [Compound 170], which IC50 (HCV replicon 1B; replicon 1B) is on record?
Answer: 0.0033 nM

Question: And the IC50 (HCV replicon 2B; read-out: 2B IC50, replicon 2B)?
Answer: 0.05 nM

Question: And the IC50 (HCV replicon 1AY93H; [3])?
Answer: 0.056 nM

Question: What about the IC50 (HCV replicon 1A; replicon 1A) of the same molecule?
Answer: 0.001 nM

Question: How did the IC50 (HCV replicon 1B; Hepatitis C virus, replicon 1B) turn out when `CCc1ccc(C2Oc3cc(-c4cnc([C@@H]5CCCN5C(=O)C(NC(=O)OC)C5CCOC(C)(C)C5)[nH]4)cc(F)c3-c3cc4cc(-c5cnc([C@@H]6CCCN6C(=O)C(NC(=O)OC)C6CCOC(C)(C)C6)[nH]5)ccc4n32)s1` (single isomer, unassigned) [Compound 291] was run?
Answer: 0.0023 nM

Question: And the IC50 (HCV replicon 2B; read-out: 2B IC50, replicon 2B)?
Answer: 0.028 nM

Question: What about the IC50 (HCV replicon 1AY93H; [3]) of the same molecule?
Answer: 0.28 nM

Question: And the IC50 (HCV replicon 1A; replicon 1A)?
Answer: 0.0024 nM

Question: What does the source list for `COC(=O)N[C@H](C(=O)N1CCC[C@H]1c1ncc(-c2cc(F)c3c(c2)OC(c2ccc(F)s2)n2c-3cc3cc(-c4cnc([C@@H]5CCCN5C(=O)[C@@H](NC(=O)OC)C(C)C)[nH]4)ccc32)[nH]1)C(C)C` (single isomer, unassigned) [Compound 13]?
Answer: IC50 (HCV replicon 1B; Hepatitis C virus, replicon 1B): 0.0023 nM; IC50 (HCV replicon 2B; read-out: 2B IC50, replicon 2B): 3.79 nM; IC50 (HCV replicon 1AY93H; [3]): 2.1 nM; IC50 (HCV replicon 1A; Hepatitis C virus, replicon 1A): 0.0019 nM

Question: Which results are given for `CCOC(C)[C@H](NC(=O)OC)C(=O)N1CCC[C@H]1c1ncc(-c2cc(F)c3c(c2)OC(c2cc(C)c(C)s2)n2c-3cc3cc(-c4cnc([C@@H]5CCCN5C(=O)[C@@H](NC(=O)OC)C(C)C)[nH]4)ccc32)[nH]1` (single isomer, unassigned) [Compound 79]?
Answer: IC50 (HCV replicon 1B; Hepatitis C virus, replicon 1B): 0.0034 nM; IC50 (HCV replicon 2B; read-out: 2B IC50, replicon 2B): 0.32 nM; IC50 (HCV replicon 1AY93H; [3]): 0.14 nM; IC50 (HCV replicon 1A; Hepatitis C virus, replicon 1A): 0.0021 nM

Question: What does the source list for `COC(=O)NC(C(=O)N1CCC[C@H]1c1ncc(-c2ccc3c(c2)cc2n3C(c3ccc(CC4CC4)s3)Oc3cc(-c4cnc([C@@H]5CCCN5C(=O)[C@@H](NC(=O)OC)C(C)C)[nH]4)cc(F)c3-2)[nH]1)C1CCOC(C)(C)C1` (single isomer, unassigned) [Compound 409]?
Answer: IC50 (HCV replicon 1B; HCV replicon 1B): 0.0025 nM; IC50 (HCV replicon 2B; [1]): 0.181 nM; IC50 (HCV replicon 1AY93H; [2]): 0.746 nM; IC50 (HCV replicon 1A; HCV replicon 1A): 0.0017 nM

Question: `COC(=O)NC(C(=O)N1CCC[C@H]1c1ncc(-c2ccc3c(c2)cc2n3C(c3ccc(C4CC4)s3)Oc3cc(-c4cnc([C@@H]5C[C@@H](F)CN5C(=O)[C@@H](NC(=O)OC)C(C)C)[nH]4)cc(F)c3-2)[nH]1)C(C)(C)F` (single isomer, unassigned) [Compound 114] was tested. Which IC50 (HCV replicon 1B; Hepatitis C virus, replicon 1B) did it give?
Answer: 0.0024 nM

Question: What about the IC50 (HCV replicon 2B; read-out: 2B IC50, replicon 2B) of the same molecule?
Answer: 0.2 nM

Question: What about the IC50 (HCV replicon 1AY93H; [3]) of the same molecule?
Answer: 0.002 nM

Question: What about the IC50 (HCV replicon 1A; replicon 1A) of the same molecule?
Answer: 0.0013 nM

Question: `COC(=O)NC(C(=O)N1CCC[C@H]1c1ncc(-c2ccc3c(c2)cc2n3C(c3ccc(CC4CC4)s3)Oc3cc(-c4cnc([C@@H]5CCCN5C(=O)[C@@H](NC(=O)OC)C(C)C)[nH]4)cc(F)c3-2)[nH]1)C1CCOC(C)(C)C1` (single isomer, unassigned) [Compound 407] was tested. Which IC50 (HCV replicon 1B; [4]) did it give?
Answer: 0.0019 nM

Question: And the IC50 (HCV replicon 2B; [1])?
Answer: 0.26 nM

Question: And the IC50 (HCV replicon 1AY93H; [2])?
Answer: 0.258 nM

Question: What about the IC50 (HCV replicon 1A; HCV replicon 1A) of the same molecule?
Answer: 0.0017 nM

Question: How did the IC50 (HCV replicon 1B; [4]) turn out when `COC(=O)N[C@H](C(=O)N1CCC[C@H]1c1ncc(-c2ccc3c(c2)OC(c2ccc(C4CC4)s2)n2c-3cc3cc(-c4cnc([C@@H]5CCCN5C(=O)[C@@H](NC(=O)OC)C(C)C)[nH]4)ccc32)[nH]1)C(C)C` (single isomer, unassigned) [Compound 704] was run?
Answer: 0.0029 nM

Question: And the IC50 (HCV replicon 2B; [1])?
Answer: 1.07 nM

Question: What about the IC50 (HCV replicon 1AY93H; [2]) of the same molecule?
Answer: 0.45 nM

Question: What about the IC50 (HCV replicon 1A; HCV replicon 1A) of the same molecule?
Answer: 0.0029 nM
